Assay results from patent US4956504A, “Novel spergualin-related compounds and process for producing the same” (Zaidan Hojin Biseibutsu Kagaku Kenkyu Kai, priority 1986, dated 1990).
Where a name gives a salt, the structure may show the parent alone.

Legend:
mice = experiment: Acute toxicity: administration amount causing acute death to mice; assay type: in vivo
Protocol: A compound of the present invention was dissolved in a physiological saline solution in various concentrations. Each of the resulting solutions was intraperitoneally administered to one of CDF1 -SLC female mice (one group: two to three mice) in an amount of 0.1 ml per 10 g of body weight. The highest concentration of present compound in solution was 400 mg/10 ml/kg, and starting from this solution of highest concentration, solutions of lower concentrations were prepared each time at a common ratio of 2. The administration amount of present compound with the lowest concentration solution with which at least one mouse died was taken as an administration amount of acute toxicity.
(§1) In Tables and 5, a control compound is included. This compound is such that in the general formula [I], X is [drawing 59] R is --CH2 OH and both of R1 and R2 are --H.

[1] = tested on: antibody formation (anti-SRBC plaque-forming cells); experiment: Inhibitory activity against antibody formation (anti-SRBC plaque-forming cells in spleen); assay type: in vivo, mouse (CDF1-SLC female); conditions: once a day for three consecutive days, minus shows an increase of antibody formation
Protocol: (b) Inhibitory activity against antibody formation
Test groups and a control group of CDF1 -SLC female mice (each group: five mice) were intravenously sensitized with 1×10^8 /0.2 ml of sheep red blood cells (SRBC). A compound of the present invention was dissolved in a physiological saline solution in various concentrations. Each of the resulting solutions was administered to one of the test groups once a day for three consecutive days from the next day of the sensitization, in an amount of 0.1 ml/10 g (body weight)/day. The physiological saline solution was administered to the control group.
In the fourth day from the sensitization, all the mice were killed and the number of anti-SRBC plaque-forming cells (PFC) in the spleen cells of each mouse was measured. From this number, the PFC number per 10^6 of spleen cells was calculated. The effect of the present compound was expressed as an inhibition percentage (%) of PFC number of test group as compared with control group. [formula]
as §1

mouse leukemia L1210 = experiment: Life prolongation effect to mouse leukemia L1210; assay type: in vivo, mouse (CDF1-SLC female); conditions: once a day for nine consecutive days, 125 or more is effective, read-out: T/C × 100 (life prolongation percentage); for response vs control in vivo at 0.39 mg/kg: 0.39 mg/kg/day; for response vs control in vivo at 0.78 mg/kg: 0.78 mg/kg/day; for response vs control in vivo at 1.56 mg/kg: 1.56 mg/kg/day; for response vs control in vivo at 3.13 mg/kg: 3.13 mg/kg/day; for response vs control in vivo at 6.25 mg/kg: 6.25 mg/kg/day; for response vs control in vivo at 12.5 mg/kg: 12.50 mg/kg/day; for response vs control in vivo at 25 mg/kg: 25.00 mg/kg/day; for response vs control in vivo at 50 mg/kg: 50.00 mg/kg/day
Protocol: 3. Life prolongation effect of present compound to mouse leukemia cells L1210 and its toxicity
1×10^5 /0.2 ml/mouse of mouse leukemia cells L1210 were intraperitoneally transplanted to test groups and a control group of CDF1 -SLC female mice (each group: four mice). A compound of the present invention was dissolved in a physiological saline solution in various concentrations and each of the resulting solutions was administered to one of the test groups once a day for nine consecutive days from the next day of the transplantation, in an amount of 0.1 ml/10 g (body weight)/day. The physiological saline solution was administered to the control group.
All the mice of the test groups and the control group were observed from the next day of the L1210 transplantation to examine their days of survival, and the average days of survival (T) of each test group and the average days of survival (C) of the control group were calculated. The life prolongation percentage of the present compound was expressed as (T/C)×100.
It is believed that a (T/C)×100 of 125 or more is effective.
as §1

[2] = Administration amount 1.56 mg/kg
[3] = Administration amount 6.25 mg/kg
[4] = intraperitoneal, single, lowest amount with which at least one mouse died

SMILES | Administration amount causing acute death to mice (mice; mouse, in vivo, ip) | Inhibitory percentage (antibody formation, PFC number vs control group) [1, 2] | Inhibitory percentage (antibody formation, PFC number vs control group) [1, 3] | response vs control in vivo at 0.39 mg/kg (mouse leukemia L1210) | response vs control in vivo at 0.78 mg/kg (mouse leukemia L1210) | response vs control in vivo at 1.56 mg/kg (mouse leukemia L1210) | response vs control in vivo at 3.13 mg/kg (mouse leukemia L1210) | response vs control in vivo at 6.25 mg/kg (mouse leukemia L1210) | response vs control in vivo at 12.5 mg/kg (mouse leukemia L1210) | response vs control in vivo at 25 mg/kg (mouse leukemia L1210) | response vs control in vivo at 50 mg/kg (mouse leukemia L1210) | Administration amount causing acute death to mice (mice; [4]) | response vs control in vivo at 0.2 mg/kg (mouse leukemia L1210; 0.20 mg/kg/day) | response vs control in vivo at 100 mg/kg (mouse leukemia L1210; 100.00 mg/kg/day)
N=C(N)Nc1ccc(CCCC(=O)N[C@@H](CO)C(=O)NCCCCNCCCNC(=O)[C@@H](N)c2ccccc2)cc1 [Compound No. 1, 10-{N-[4-(4-GP)butanoyl]-L-Ser}-1-L-PhG-1,5,10-TAD trihydrochloride] | 100 mg/kg | 87% | 97% | 146% | 195% | 296% | 269% | 315% | 278% | 294% | 327% |  |  | 
CC(C)C[C@H](N)C(=O)NCCCNCCCCNC(=O)[C@H](CO)NC(=O)CCCc1ccc(NC(=N)N)cc1 [Compound No. 2, 10-{N-[4-(4-GP)butanoyl)-L-Ser}-1-L-] |  | 60% | 92% | 136% | 152% | 244% | 331% | 300% | 272% | 281% | 53% |  |  | 
CC(C)C[C@@H](N)C(=O)NCCCNCCCCNC(=O)[C@H](CO)NC(=O)CCCc1ccc(NC(=N)N)cc1 [Compound No. 3, 10-{N-[4-(4-GP)butanoyl]-L-Ser}-1-D-Leu-1,5,10-TAD trihydrochloride] |  |  |  |  |  |  |  |  |  |  |  | 100 mg/kg |  | 
N=C(N)Nc1ccc(CCCC(=O)N[C@@H](CO)C(=O)NCCCCNCCCNC(=O)[C@H](N)c2ccccc2)cc1 [Compound No. 4, trihydrochloride] | 100 mg/kg | 68% | 95% | 125% | 149% | 195% | 228% | 237% | 243% | 247% | 197% |  |  | 
N=C(N)Nc1ccc(CCCC(=O)N[C@@H](CO)C(=O)NCCCCNCCCNC(=O)[C@@H](N)Cc2ccccc2)cc1 [Compound No. 5, 10-{N-[4-(4-GP)butanoyl]-L-Ser}-1-L-Phe-1,5,10-TAD trihydrochloride] | 100 mg/kg |  |  | 123% | 133% | 146% | 265% | 290% | 290% | 284% | 253% |  |  | 
N=C(N)Nc1ccc(CCCC(=O)N[C@@H](CO)C(=O)NCCCCNCCCNC(=O)[C@@H](N)Cc2ccc(O)cc2)cc1 [Compound No. 6, 10-{N-[4-(4-GP)butanoyl]-L-Ser}-1-L-Tyr-1,5,10-TAD trihydrochloride] | 100 mg/kg |  |  | 125% | 158% | 201% | 267% | 250% | 250% | 270% | 162% |  |  | 
N=C(N)Nc1ccc(CCCC(=O)N[C@@H](CO)C(=O)NCCCCNCCCNC(=O)[C@@H](N)CC(=O)O)cc1 [Compound No. 7, 10-{N-[4-(4-GP)butanoyl]-L-Ser}-1-L-Asp-1,5,10-TAD trihydrochloride] | 100 mg/kg |  |  | 96% | 86% | 99% | 152% | 216% | 265% | 284% | 284% |  |  | 
C[C@H](N)C(=O)NCCCNCCCCNC(=O)[C@H](CO)NC(=O)CCCc1ccc(NC(=N)N)cc1 [Compound No. 8, 10-{N-[4-(4-GP)butanoyl]-L-Ser}-1-L-Ala-1,5,10-TAD trihydrochloride] |  |  |  | 102% | 130% | 164% | 312% | 272% | 290% | 362% |  |  | 109% | 
N=C(N)Nc1ccc(CCCC(=O)N[C@@H](CO)C(=O)NCCCCNCCCNC(=O)[C@@H](N)CO)cc1 [Compound No. 9, 10-{N-[4-(4-GP)butanoyl]-L-Ser}-1-L-Ser-1,5,10-TAD trihydrochloride] | > 100 mg/kg |  |  |  | 118% | 125% | 155% | 191% | 276% | 241% | 250% |  |  | 103%
N=C(N)Nc1ccc(CCCC(=O)N[C@@H](CO)C(=O)NCCCCNCCCNC(=O)[C@@H]2CCCN2)cc1 [Compound No. 10, 10-{N-[4-(4-GP)butanoyl-L-Ser}-1-L-Pro-1,5,10-TAD trihydrochloride] |  |  |  |  |  |  |  |  |  |  |  | 100 mg/kg |  | 
N=C(N)Nc1ccc(CCCC(=O)N[C@@H](CO)C(=O)NCCCCNCCCNC(=O)[C@@H](O)[C@H](N)Cc2ccccc2)cc1 [Compound No. 12, 10-{N-[4-(4-GP)butanoyl]-L-Ser}-1-[(2S, 3R)-AHPA]-1,5,10-TAD trihydrochloride] |  |  |  |  |  |  |  |  |  |  |  | 100 mg/kg |  | 
CC(C)C[C@H](NC(=O)[C@@H](N)CC(C)C)C(=O)NCCCNCCCCNC(=O)[C@H](CO)NC(=O)CCCc1ccc(NC(=N)N)cc1 [Compound No. 13, 10-{N-[4-(4-GP)butanoyl]-L-Ser}-1-L-Leu-L-Leu-1,5,10-TAD trihydrochloride] | 100 mg/kg | 53% | 88% | 132% | 149% | 201% | 283% | 247% | 257% | 274% | 303% |  |  | 
N=C(N)Nc1ccc(CCCC(=O)N[C@@H](CO)C(=O)NCCCCN(CCCNC(=O)[C@@H](N)c2ccccc2)C(=O)[C@@H](N)c2ccccc2)cc1 [Compound No. 14, 10-{N-[4-(4-GP)butanoyl]-L-Ser}-1,5-di-L-PhG-1,5,10-TAD trihydrochloride] | 200 mg/kg | -50% | -75% |  |  |  |  |  |  |  |  |  |  | 
